Assay results taken from patent US9598420B2, “Benzodiazepine bromodomain inhibitor” (GlaxoSmithKline LLC, priority 2009, dated 2017).

Key:
[1] = system: LPS induced IL-6 secretion from whole blood; test: Measurement of LPS Induced IL-6 Secretion from Whole Blood; format: cell-based; settings: LPS 200 ng/ml, 24 hours, immunoassay, read-out: pIC50 (IL-6 levels) (converted)
Description: Activation of monocytic cells by agonists of toll-like receptors such as bacterial lipopolysaccharide (LPS) results in production of key inflammatory mediators including IL-6. Such pathways are widely considered to be central to the pathophysiology of a range of auto-immune and inflammatory disorders.
After further incubation for 24 hours at 37 degrees, 140 ul of PBS are added to each well. The plates are sealed, shaken for 10 minutes and then centrifuged (2500 rpm×10 min). 100 ul of the supernatant are removed and IL-6 levels assayed by immunoassay (typically by MesoScale Discovery technology) either immediately or following storage at −20 degrees.

Q: For `Cc1nnc2n1-c1ccc(O)cc1C(c1ccc(Cl)cc1)=N[C@H]2CC(=O)Nc1ccc(F)cc1`, which melting point is on record?
A: 222 °C (dec.)

Q: Which melting point does the source give for `COc1ccc2c(c1)C(c1ccc(Cl)cc1)=N[C@@H](CC(=O)NC1CCCCC1)c1nnc(C)n1-2` (stereo in doubt) here?
A: > 260 °C

Q: Which results are given for `COc1ccc2c(c1)C(c1ccc(Cl)cc1)=N[C@@H](CC(=O)Nc1ccccc1F)c1nnc(C)n1-2` [Example 9, 2-[(4S)-6-(4-chlorophenyl)-1-methyl-8-(methyloxy)-4H-[1,2,4]triazolo[4,3-a][1,4]benzodiazepin-4-yl]-N-(2-fluorophenyl)acetamide]?
A: IC50 [1]: ≤ 10 µM; melting point: 264 °C

Q: With `COc1ccc2c(c1)C(c1ccc(Cl)cc1)=N[C@@H](CC(=O)Nc1cccc(F)c1)c1nnc(C)n1-2` [Example 10, 2-[(4S)-6-(4-chlorophenyl)-1-methyl-8-(methyloxy)-4H-[1,2,4]triazolo[4,3-a][1,4]benzodiazepin-4-yl]-N-(3-fluorophenyl)acetamide] as the compound, how does the IC50 [1] read?
A: ≤ 10 µM

Q: And the melting point?
A: 248 °C

Q: Which melting point does the source give for `COc1ccc2c(c1)C(c1ccc(Cl)cc1)=N[C@@H](CC(=O)Nc1ccncc1)c1nnc(C)n1-2` [Example 14, 2-[(4S)-6-(4-chlorophenyl)-1-methyl-8-(methyloxy)-4H-[1,2,4]triazolo[4,3-a][1,4]benzodiazepin-4-yl]-N-4-pyridinylacetamide] here?
A: 223 °C

Q: Which results are given for `COc1ccc2c(c1)C(c1ccc(Cl)cc1)=N[C@@H](CC(=O)Nc1nccs1)c1nnc(C)n1-2` [Example 15, 2-[(4S)-6-(4-chlorophenyl)-1-methyl-8-(methyloxy)-4H-[1,2,4]triazolo[4,3-a][1,4]benzodiazepin-4-yl]-N-1,3-thiazol-2-ylacetamide]?
A: IC50 [1]: ≤ 10 µM; melting point: 249 °C
